Experimental data as given in PMC5435703 (Scientific Reports, 2017).
Converted amounts (≈) assume the structure as drawn. “Also recorded” adds a separate entry of the source. Read-outs that look alike come from different tables or passages of the source. Marks after values point to notes of the source that are not given here.

How the values were obtained:
[1] = Hemolysis assay with red blood cells; details: human, pH 7.2
MRSE 35984 [2] = test: MIC broth microdilution assay; type: cell-based, Staphylococcus epidermidis; details: for MIC: Staphylococcus epidermidis, MRSE
MRSA-2 = test: MIC broth microdilution assay; type: cell-based, Staphylococcus aureus; details: Staphylococcus aureus, MRSA
MRSA-1 = test: MIC broth microdilution assay; type: cell-based, Staphylococcus aureus; details: Staphylococcus aureus, MRSA
MRSA BAA-1707 [3] = test: Calgary Biofilm Device (CBD) MBC/MBEC assay; type: cell-based, Staphylococcus aureus; details: for MBC: Staphylococcus aureus
MRSE 35984 [4] = test: Calgary Biofilm Device (CBD) MBC/MBEC assay; type: cell-based, Staphylococcus epidermidis
S. epi 12228 = test: MIC broth microdilution assay; type: cell-based, Staphylococcus epidermidis; details: Staphylococcus epidermidis, 12228
MtB H37Ra = test: MIC assay for Mycobacterium tuberculosis; type: cell-based; details: 168 h, seven days
[5] = LDH release assay for HeLa cytotoxicity; type: cell-based; details: human, HeLa cells; LDH release, 24 hours; tested at 25, 50 and 100 µM; read-out: HeLa Cytotox. IC50
VRE 700221 [6] = test: Calgary Biofilm Device (CBD) MBC/MBEC assay; type: cell-based, Enterococcus faecium
MRSA BAA-1707 [7] = test: Macromolecular synthesis inhibition assay with [3H]-labeled precursors; type: cell-based, Staphylococcus aureus
Procedure: To characterize the antibacterial mechanism of action for HP small molecules, we investigated the effects HP 1 has against MRSA BAA-1707 on global biosynthetic pathways in rapidly-dividing (exponentially-growing) planktonic cells through quantifying the incorporation of various [^3H]-labeled precursors into their corresponding macromolecules. For these experiments, MRSA-1707 cultures were treated with [^3H]-thymidine (DNA biosynthesis), [^3H]-uridine (RNA biosynthesis) and [^3H]-leucine (protein biosynthesis) in the presence of HP 1 and antibiotic controls (4–16 x MIC).
Macromolecular syntheses experiments were carried out in methicillin-resistant Staphylococcus aureus BAA-1707. An overnight culture (100 µL) of S. aureus BAA-1707 was sub-cultured into 10 mL of fresh TSBG media which was allowed to grow to exponential phase (OD600 = 0.2–0.3) before transferring 500 µL to each well in a 24 well-plate. The test compounds and vehicle control (DMSO) were added to achieve the desired concentrations relative to their MIC values against S. aureus BAA-1707. Treated cultures were then incubated at 37 °C for 30 minutes before radioactive precursors for DNA ([^3H] thymidine (0.5 µCi)), RNA ([^3H] uridine (0.5 µCi)) and protein ([^3H] leucine (1 µCi)) were added. […] DMSO served as our negative control. DNA and RNA radiolabeled cultures were then incubated in 37 °C for 15 minutes before being stopped by adding 60 µL of cold 5% trichloroacetic acid (TCA). The protein synthesis experiment was stopped after 40 minutes by adding 60 µL cold TCA. These mixtures were then incubated at 2 °C for at least 30 minutes before the contents of the plates were transferred onto glass microfiber filters (24 mm) and washed 5 times with 1 mL of 5% TCA. The filters are allowed to dry overnight before 3.5 mL of the scintillation fluid was added to the scintillation vials containing the filters and the radiation counts were measured using liquid scintillation LS 6500.
H.) Macromolecular Synthesis Inhibition Assay: […]

VRE 700221 [8] = test: MIC broth microdilution assay; type: cell-based, Enterococcus faecium; details: for MIC: Enterococcus, VRE
four MRSA isolates = test: MIC assays, panel of four MRSA isolates; type: cell-based; details: Staphylococcus aureus, range over isolates, read-out: MIC against a panel of four MRSA isolates
MRSA BAA-1707 [9] = test: MIC broth microdilution assay; type: cell-based, Staphylococcus aureus; details: for MIC: Staphylococcus aureus
S. epidermidis = test: MIC assays, S. epidermidis strains; type: cell-based; details: Staphylococcus epidermidis; range over strains
[10] = Table 1, read-out: MIC MRSE 35984
[11] = Table 3, read-out: MRSE 35984 MIC
[12] = single plate shown as picture, read-out: MIC (µM), MIC Assay Against MRSA-2
[13] = supplement page 28, single CBD plate
[14] = Table 1, read-out: MIC S. epi 12228
[15] = single plate shown as picture, read-out: MIC (µM), MIC Assay Against S. epidermidis 12228

With `Oc1c(Br)cc(Br)c2nc3ccccc3nc12` [HP 1, 2,4-dibromo-1-hydroxyphenazine] the hemolysis at 1 h, 200 µM [1] was ≤ 1%, the MIC (MRSE 35984 [2]; [10]) was 2.35 µM (≈ 0.832 µg/mL) and the MIC (MRSE 35984 [2]; [11]) was 2.35 µM (≈ 0.832 µg/mL). For the same compound, the “MIC MRSE 35984” value (MRSE 35984 [2]; Table 1) was 2.35^a µM, the MIC (MRSA-2; Table 1, read-out: MIC MRSA-2) was 2.35 µM (≈ 0.832 µg/mL) and the MIC (MRSA-2; [12]) was 3.13 µM (≈ 1.11 µg/mL). The MIC (MRSA-1; Table 1, read-out: MIC MRSA-1) was 0.78 µM (≈ 0.276 µg/mL), the “MRSA-1707 Biofilm Eradication MBEC” value (MRSA BAA-1707 [3]; Figure 7A, single CBD plate) was 50 µM and the MBC (MRSA BAA-1707 [3]; 24 h, CBD, planktonic killing, 24 hours treatment, read-out: MRSA BAA-1707 MBC) was 50 µM (≈ 17.7 µg/mL). For the same compound, the MBC (MRSA BAA-1707 [3]; 24 h, supplement page 27, first CBD plate, read-out: MRSA Planktonic Killing MBC) was 25 µM (≈ 8.85 µg/mL), the MBC (MRSA BAA-1707 [3]; 24 h, supplement page 27, second CBD plate, read-out: MRSA Planktonic Killing MBC) was 25 µM (≈ 8.85 µg/mL) and the MBC (MRSA BAA-1707 [3]; Figure 7A, single CBD plate, read-out: MRSA-1707 Planktonic Eradication MBC) was 25 µM (≈ 8.85 µg/mL). The MBC (MRSE 35984 [4]; Staphylococcus epidermidis, MRSE, CBD, planktonic killing, read-out: MRSE 35984 MBC) was 23.5 µM (≈ 8.32 µg/mL), the “MRSE Biofilm Eradication MBEC” value (MRSE 35984 [4]; [13]) was 250 µM and the “MRSE Planktonic Killing MBC” value (MRSE 35984 [4]; [13]) was 15.6 µM. The MIC (S. epi 12228; [14]) was 2.35 µM (≈ 0.832 µg/mL), the MIC (S. epi 12228; [15]) was 3.13 µM (≈ 1.11 µg/mL) and the MIC (MtB H37Ra) was 25 µM (≈ 8.85 µg/mL). The IC50 at 24 h [5] was ~100 µM, the MBC (VRE 700221 [6]; Enterococcus, VRE, CBD, planktonic killing, read-out: VRE 700221 MBC) was 18.8 µM (≈ 6.66 µg/mL) and the “VRE Biofilm Eradication MBEC” value (VRE 700221 [6]; [13]) was 12.5 µM. The “VRE Planktonic Killing MBC” value (VRE 700221 [6]; [13]) was 12.5 µM, the “RNA biosynthesis inhibition ([3H]-uridine)” value (MRSA BAA-1707 [7]; 4 x MIC) was “inhibits” and the “protein biosynthesis inhibition ([3H]-leucine)” value (MRSA BAA-1707 [7]; 4 x MIC) was “inhibits”. The “DNA biosynthesis inhibition ([3H]-thymidine)” value (MRSA BAA-1707 [7]; 8 x MIC) was “does not inhibit; also recorded: not inhibiting”.

For `CCc1cccc2nc3c(O)c(Br)cc(Br)c3nc12` [HP 18], the hemolysis at 1 h, 200 µM [1] was 1.7%, the MIC (MRSE 35984 [2]; [10]) was 0.1 to 0.78 µM (≈ 0.0382 to 0.298 µg/mL) and the MIC (MRSE 35984 [2]; [11]) was ≤ 0.1 µM. For the same compound, the MIC (MRSE 35984 [2]; single plate shown as picture, read-out: MIC (µM), MIC Assay Against MRSE 35984) was 0.1 µM (≈ 0.0382 µg/mL), the “MIC MRSE 35984” value (MRSE 35984 [2]; Table 1) was ≤ 0.10^b µM and the MIC (MRSA-2; Table 1, read-out: MIC MRSA-2) was 0.39 µM (≈ 0.149 µg/mL). The MIC (MRSA-2; [12]) was 0.39 µM (≈ 0.149 µg/mL), the MIC (MRSA-1; Table 1, read-out: MIC MRSA-1) was 0.15 µM (≈ 0.0573 µg/mL) and the MIC (MRSA-1; single plate shown as picture, read-out: MIC (µM), MIC Assay Against MRSA-1) was 0.2 µM (≈ 0.0764 µg/mL). The MIC (S. epi 12228; [14]) was 0.3 µM (≈ 0.115 µg/mL), the MIC (S. epi 12228; [15]) was 0.39 µM (≈ 0.149 µg/mL) and the MIC (VRE 700221 [8]; Table 1, read-out: MIC VRE 700221) was 0.15 µM (≈ 0.0573 µg/mL). For the same compound, the MIC (VRE 700221 [8]; Table 3, read-out: VRE 700221 MIC) was 0.15 µM (≈ 0.0573 µg/mL), the MIC (VRE 700221 [8]; single plate shown as picture, read-out: MIC (µM), MIC Assay Against VRE 700221) was 0.2 µM (≈ 0.0764 µg/mL) and the “MIC VRE 700221” value (VRE 700221 [8]; Table 1) was 0.15^a µM. The MIC (four MRSA isolates) was 0.05 to 0.59 µM (≈ 0.0191 to 0.225 µg/mL), the MIC (MtB H37Ra) was 25 µM (≈ 9.55 µg/mL) and the MIC (MRSA BAA-1707 [9]; Table 1, three independent experiments, read-out: MIC MRSA BAA-1707) was 0.05 to 0.3 µM (≈ 0.0191 to 0.115 µg/mL). The MIC (MRSA BAA-1707 [9]; Table 3, read-out: MRSA BAA-1707 MIC) was ≤ 0.1 µM, the MIC (MRSA BAA-1707 [9]; single plate shown as picture, read-out: MIC (µM), MIC Assay against MRSA BAA-1707) was 0.1 µM (≈ 0.0382 µg/mL) and the “MIC MRSA BAA-1707” value (MRSA BAA-1707 [9]; Table 1, three independent experiments) was ≤ 0.10^b µM. The IC50 at 24 h [5] was > 100 µM and the MIC (S. epidermidis) was 0.1 to 0.3 µM (≈ 0.0382 to 0.115 µg/mL).
